Tests used:
thrombosis = settings: administered orally or intravenously to mammals including humans; Japanese Patent Kokai No. 125,930/73; cited from earlier work
blood platelets = settings: at low concentration; Japanese Patent Kokai No. 125,930/73; cited from earlier work
[1] = system: cerebral blood flow, bastard dog; experiment: Increasing effect of cerebral blood flow in anesthetized dog; format: in vivo; settings: Canis lupus familiaris, iv, through profunda femoris vein, dog; for change in vivo at 0.3 mg/kg: dosage 300 μg/kg
Experimental: (Test of increasing effect of cerebral blood flow)
Thus, a bastard dog (male, 12-20 kg of body weight) was fixed in a prone (position) and was anesthetized with […] of pentobarbital sodium and forced to breathe at a frequency of respiration of 20 times/minute. Then, the skull was bared and the surface bone was removed to expose the venous sinus by using a grinder and the venous blood was taken out from the venas which was cannulizated. The amount of venous blood flow was measured by using an electromagnetic blood flow meter and next measured by using drop-counter to measure the number of drops of blood per 10 seconds.
The increasing effect of cerebral blood flow was calculated by comparing the number of blood drops in 30 seconds at the peak of increasement shown before and after the administration of compound to be tested. Each of the compounds to be tested was dissolved in dimethylformamide and diluted with physiological saline solution and administered through a cannule being inserted into the profunda femoris vein.

Acute toxicity test = settings: mouse, in vivo; male mice, oral administration
Experimental: The test compounds were administered orally to the mice and LD50 (mg/kg) of the compounds was determined.

[2] = system: rabbit platelet (ADP-induced aggregation); experiment: Platelet aggregation inhibitory effect, ADP-induced aggregation in rabbit platelet; format: cell-based; settings: Oryctolagus cuniculus; for inhibition at 100 µM: concentration of the test compound solution 10^-4 mole; for inhibition at 100 µM / inhibition at 10 µM: read-out: Inhibition effect on ADP-induced aggregation in rabbit platelet; for inhibition at 10 µM: concentration of the test compound solution 10^-5 mole; for inhibition at 1 µM: concentration of the test compound solution 10^-6 mole
Source text: (§1) The blood sample used for the test is a 1/9 (by volume) mixture of sodium citrate and whole blood collected from rabbit. Said sample is subjected to 10-minute centrifugal separation at 1,000 r.p.m. to obtain a platelet rich plasma (PRP). The thus obtained PRP is separated, and the remaining blood sample is further subjected to 15-minute centrifugal separation at 3,000 r.p.m. to obtain a platelet poor plasma (PPP).
(§2) The number of platelets in the PRP is counted by the Brecher-Clonkite Method, and the PRP is diluted with the PPP to prepare a PRP sample with platelet concentration of 300,000/mm^3 for the adenosine diphosphate (ADP)-induced aggregation test. There is also prepared a PRP sample with platelet concentration of 450,000/mm^3 for the collagen-induced aggregation test.
(§3) 0.6 Ml of said PRP sample is added into 0.01 ml of a solution of a test compound of a predetermined concentration and the mixture is placed in a 37° C. thermostat for one minute. Then 0.07 ml of an ADP or collagen solution is added to the mixture. Transmittance of this mixture is determined and the change of transmittance is recorded by using the aggregometer at stirrer speed of 1,100 r.p.m. […] ADP is adjusted to a concentration of 7.5×10^-5 M, and the collagen solution is prepared by triturating 100 mg of collagen with 5 ml of said buffer and the supernatant is used as collagen inducer. Adenosine and acetylsalicylic acid are used as controls for the ADP-induced aggregation test and the collagen-induced aggregation test, respectively. The platelet aggregation inhibitory effect is measured in terms of percent inhibition with respect to the aggregation rate of the controls. The aggregation rate is calculated from the following formula: [formula] wherein a: transmittance of PRP
(§4) b: transmittance of PRP containing a test compound and an aggregation inducer
(§5) The compounds tested are as follows.

[3] = system: rabbit platelet (collagen-induced aggregation); experiment: Platelet aggregation inhibitory effect, collagen-induced aggregation in rabbit platelet; format: cell-based; settings: Oryctolagus cuniculus, read-out: Inhibition effect on collagen-induced aggregation in rabbit platelet; for inhibition at 100 µM: concentration of the test compound solution 10^-4 mole; for inhibition at 10 µM: concentration of the test compound solution 10^-5 mole; for inhibition at 1 µM: concentration of the test compound solution 10^-6 mole
Source text: as §1, §2, §3, §4, §5

Row | SMILES | effectiveness for preventing and treating thrombosis (thrombosis) | inhibition of the aggregation of blood platelets (blood platelets) | change in vivo at 0.03 mg/kg ([1]; dosage 30 μg/kg) | LD50 (Acute toxicity test) | inhibition at 100 µM [2] | inhibition at 10 µM [2] | inhibition at 1 µM [2] | inhibition at 100 µM [3] | inhibition at 10 µM [3] | inhibition at 1 µM [3] | change in vivo at 0.3 mg/kg [1]
1 | CC(C)(C)NCC(O)COc1cccc2c1CCC(=O)N2 (centres unmarked) [5-(2'-hydroxy-3-tert-butylamino)-propoxy-3,4-dihydrocarbostyril] | very effective for preventing and treating thrombosis | could specifically inhibit the aggregation of blood platelets | – | – | – | – | – | – | – | – | –
2 | O=C1CCc2cc(OCCCc3nnnn3C3CCCCC3)ccc2N1 [Compound 3, 6-[3-(1-Cyclohexyltetrazol-5-yl)propoxy]-3,4-dihydrocarbostyril] | – | – | 69% | > 1000 mg/kg | 76.7% | 59.6% | 9.6% | 100% | 53.5% | 10.3% | –
3 | O=c1ccc2cc(OCCCc3nnnn3Cc3ccccc3)ccc2[nH]1 [Compound 4, 6-[3-(1-Benzyltetrazol-5-yl)propoxy]carbostyril] | – | – | – | > 1000 mg/kg | 100% | 45.5% | 3.7% | 100% | 72.5% | 10.8% | 65.8%
4 | O=c1ccc2cc(OCCCc3nnnn3-c3ccccc3)ccc2[nH]1 [Compound 9, 6-[3-(1-Phenyltetrazol-5-yl)propoxy]carbostyril] | – | – | – | > 1000 mg/kg | 100% | 45.1% | 26.8% | 100% | 100% | 32.8% | 69.9%

Reference: patent US4277479A, “Tetrazolylalkoxycarbostyril derivatives and pharmaceutical compositions containing them” (Otsuka Pharmaceutical Co., Ltd., priority 1978, dated 1981)
